Reference: patent US9908890B2, “Selective inhibitors of constitutive androstane receptor” (ST. JUDE CHILDREN'S RESEARCH HOSPITAL, priority 2014, dated 2018)

Assays:
[1] = system: CAR-regulated genes in LS174T cells; assay: Quantitative real-time PCR in LS174T cells; format: cell-based; conditions: 1 μM CINPA1 or 5 μM PK11195, 24 h
Description: (§1) RNA was extracted, cDNA synthesized, and gene expression analyzed by performing real-time PCR using Taqman probes for each gene. […] LS174T cells were maintained in 10% charcoal-dextran-treated, FBS media for 4 days before the experiment. […] Briefly, human primary hepatocytes (HPH) were maintained in William's E media with supplements for 4 days before treatment. […] RNA extracted was used for cDNA synthesis and measured by performing quantitative real-time PCR assays with Taqman probes.
Briefly, LS174T were maintained in 10% charcoal-dextran treated-FBS media for 4 days prior to the experiment. […] For the data shown in both FIG. 12A and FIG. 12B, RNA extracted was used for cDNA synthesis and measured by quantitative real-time PCR with Taqman probes. MDR1 mRNA was normalized to the internal control 18S and DMSO treated samples were set to 1. *, p<0.05 when compared to DMSO samples.
(§2) Cell lines or human hepatocytes were treated with chemicals for 24-48 hours before RNA was extracted and purified by using the Maxwell 16LEV simplyRNA tissue kit (Promega). Then, cDNA was prepared from 2 μg of RNA, and diluted cDNA was used to perform quantitative RT-PCR assays by using TaqMan probes (ABI; 7500 Thermocycler) with 18S as the internal standard.

[2] = system: CAR- and PXR-regulated genes in human primary hepatocytes; assay: Quantitative real-time PCR in human primary hepatocytes; format: cell-based; conditions: 48 h
Description: as §1
Briefly, human primary hepatocytes (donor 5) were maintained in William's E Media with supplements for 4 days prior to treatment. […] RNA extracted was used for cDNA synthesis and measured by quantitative real-time PCR with Taqman probes. CYP2B6 and CYP3A4 mRNA were normalized to the internal control 18S and DMSO-treated samples were set to 1.
as §2

GST-hCAR-LBD = target: T1, GST-hCAR-LBD (Homo sapiens, UniProt Q14994); assay: CoAct binding inverse agonist assay (LanthaScreen TR-FRET, fluorescent PGC-1α coactivator recruitment/repression); format: biochemical
T1 construct: purchased Life Technologies (Carlsbad, Calif.) or Invitrogen (Carlsbad, Calif.)
T1 sequence (Q14994 109-352 limits assumed): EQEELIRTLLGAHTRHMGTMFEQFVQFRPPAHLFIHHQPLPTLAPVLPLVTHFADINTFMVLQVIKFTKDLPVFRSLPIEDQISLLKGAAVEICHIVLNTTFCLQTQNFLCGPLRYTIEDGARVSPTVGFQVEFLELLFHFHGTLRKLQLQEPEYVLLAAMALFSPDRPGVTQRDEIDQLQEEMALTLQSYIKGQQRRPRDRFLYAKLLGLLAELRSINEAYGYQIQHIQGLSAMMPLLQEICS

[3] = system: HepG2, LS174T, and HEK293T cells; assay: Cell viability (CellTiter-Glo)
Method: Cells were treated with indicated compounds for 24 h, and viability was measured by using CellTiter-Glo® reagent. […] Cell viability was measured 4 days post treatment by using CellTiter-Glo® reagent. Viability of cells treated with DMSO (negative control) was set to 100% in all assays.

CAR protein = assay: Western blot of CAR protein in human primary hepatocytes; format: cell-based; conditions: 5 μM CINPA1, 48 h
Method: Briefly, CAR binding to PGC-1α coactivator peptide was determined by using the LanthaScreen® fluorescent coregulator peptide assay. Fluorescein-labeled PGC-1α peptide (125 nM) was complexed with GST-hCAR-LBD (5 nM) and Tb-anti-GST antibody (5 nM) as described in Experimental Procedures. […] Lysates were prepared, and CAR expression was analyzed by Western blot using CAR monoclonal antibody (Clone N4111, R&D Systems). β-actin was used as a loading control. […] Briefly, U2OS cells were transfected to express FLAG-hCAR1. […] Secondary antibody labeled with Alexa Fluor® 555 dye was used to visualize FLAG-tagged hCAR1 (shown in the second column) using a NikonC 1Si microscope. Nuclei were stained with DAPI (shown in the first column).

[4] = target: T2, hCAR1 interaction with coregulators (SRC-1, TIF2, SMRTα, mNCoR) (Homo sapiens, UniProt Q14994); assay: Mammalian two-hybrid assay (HEK293T cells); format: cell-based
T2 construct: expressed in transfected cells; host or cells: HEK293T
T2 sequence (Q14994 1-348 isoform Q14994-2): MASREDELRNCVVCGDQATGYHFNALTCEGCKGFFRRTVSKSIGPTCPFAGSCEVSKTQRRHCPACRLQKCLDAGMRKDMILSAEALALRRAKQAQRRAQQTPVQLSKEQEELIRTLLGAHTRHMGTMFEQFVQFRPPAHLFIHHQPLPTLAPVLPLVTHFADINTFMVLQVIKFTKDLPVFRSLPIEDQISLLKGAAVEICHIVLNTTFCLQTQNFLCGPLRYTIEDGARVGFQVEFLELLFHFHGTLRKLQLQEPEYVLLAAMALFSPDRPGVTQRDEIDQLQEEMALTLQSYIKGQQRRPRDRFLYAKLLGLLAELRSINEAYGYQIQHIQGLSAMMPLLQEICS
Description: Briefly, mammalian two-hybrid assays were set up in HEK293T cells transfected with expression plasmids encoding VP16AD-hCAR1 fusion protein, GAL4DBD-co-activator fusion proteins, and the reporter plasmid pG5luc. […] Fold interaction represents pG5luc reporter activity normalized to the Renilla luciferase internal control. Data presented are the mean±SD of at least three independent transfections. *, p<0.001 compared to DMSO treatment within the indicated co-activator set. […] Briefly, mammalian two-hybrid assays were set up in HEK293T cells transfected with expression plasmids encoding VP16AD-hCAR1 fusion protein, GAL4DBD-co-repressor fusion proteins, and the reporter plasmid pG51luc. […] Fold interaction represents pG5luc reporter activity normalized to the Renilla luciferase internal control. Data presented are the mean±SD of at least three independent transfections. *, p<0.001 compared to DMSO treatment within the indicated co-repressor set.
The pACT-hCAR1, pBIND-coregulator peptide and pG5-luc were cotransfected into HEK293T cells. Renilla luciferase is constitutively expressed from the pBIND plasmids. The Dual-Glo Luciferase Assay (Promega) was used to measure pG5-luc luciferase activity. The relative luciferase activity was determined by normalizing firefly luciferase activity with Renilla luciferase activity.

CCOC(=O)Nc1ccc2c(c1)N(C(=O)CN(CC)CC)c1ccccc1CC2 [CINPA1]
CYP2B6 mRNA level [1]: moderately reduced the levels of CYP2B6 | CYP3A4 mRNA level [1]: without significantly affecting CYP3A4 | MDR1 mRNA level [1]: reduced MDR1 levels | CITCO-induced CAR transactivation of the CYP2B6 gene ([2]; 1 μM CITCO plus CINPA1 (5, 1 or 0.3 μM for Donor 1, 2, 3)): effectively inhibited | rifampicin-induced PXR-mediated gene expression ([2]; 5 μM CINPA1 with 10 μM rifampicin): could not reduce | CAR-LBD interaction with PGC-1α coactivator peptide (GST-hCAR-LBD; dose response, FIG. 6A): efficiently inhibits | IC50 (GST-hCAR-LBD; read-out: IC50 (CAR inverse agonistic activity)): 690 nM | cytotoxicity at higher concentrations ([3]; 30 μM and 60 μM): cytotoxic to varying degrees | general cytotoxicity ([3]; concentration range effective in inhibiting CAR and PXR, 4-day assay): does not exhibit general cytotoxicity | CAR protein level (CAR protein): had no effect | corepressor (SMRTα, mNCoR) interaction with CAR-LBD ([4]; 5 μM CINPA1, 24 h): increased interaction | coactivator (SRC-1, TIF-2) binding to CAR-LBD ([4]; 5 μM CINPA1, presence or absence of CITCO, 24 h): reduced SRC-1 and TIF-2 coactivator binding
